Data from ChEMBL document CHEMBL3774345, “Synthesis of new diarylamides with pyrimidinyl pyridine scaffold and evaluation of their anti-proliferative effect on cancer cell lines” (Bioorg Med Chem Lett, 2016).

Assays:
[1] = Cytotoxicity against human BT549 cells assessed as cell growth at 10^-8 M after 24 hrs by SRB assay; format: functional; settings: BT-549, 24 h, read-out: Activity
NCI-H522 = assay: Cytotoxicity against human NCI-H522 cells assessed as cell growth at 10^-7 M after 24 hrs by SRB assay; format: functional; settings: NCI-H522, 24 h, read-out: Activity
[2] = Cytotoxicity against human HCT116 cells assessed as cell growth at 10^-7 M after 24 hrs by SRB assay; format: functional; settings: HCT-116, 24 h, read-out: Activity
[3] = Cytotoxicity against human HCT15 cells assessed as cell growth at 10^-7 M after 24 hrs by SRB assay; format: functional; settings: HCT-15, 24 h, read-out: Activity
[4] = Cytotoxicity against human SNB19 cells assessed as cell growth at 10^-7 M after 24 hrs by SRB assay; format: functional; settings: SNB-19, 24 h, read-out: Activity
[5] = Cytotoxicity against human HOP92 cells after 24 hrs by SRB assay; format: functional, cell-based; settings: HOP-92, 24 h
[6] = Cytotoxicity against human HCC2998 cells assessed as cell growth at 10^-4 M after 24 hrs by SRB assay; format: functional; settings: HCC 2998, 24 h, read-out: Activity
MDA-MB-435 [7] = assay: Cytotoxicity against human MDA-MB-435 cells after 24 hrs by SRB assay; format: functional, cell-based; settings: MDA-MB-435, 24 h
[8] = Cytotoxicity against human RPMI8226 cells assessed as cell growth at 10^-6 M after 24 hrs by SRB assay; format: functional; settings: RPMI-8226, 24 h, read-out: Activity
MDA-MB-435 [9] = assay: Cytotoxicity against human MDA-MB-435 cells assessed as cell growth at 10^-4 M after 24 hrs by SRB assay; format: functional; settings: MDA-MB-435, 24 h, read-out: Activity
[10] = Cytotoxicity against human OVCAR8 cells assessed as cell growth at 10^-4 M after 24 hrs by SRB assay; format: functional; settings: OVCAR-8, 24 h, read-out: Activity
[11] = Cytotoxicity against human SKOV3 cells assessed as cell growth at 10^-4 M after 24 hrs by SRB assay; format: functional; settings: SK-OV-3, 24 h, read-out: Activity
[12] = Cytotoxicity against human Hs 578T cells assessed as cell growth at 10^-4 M after 24 hrs by SRB assay; format: functional; settings: read-out: Activity
NCI-H322M = assay: Cytotoxicity against human NCI-H322M cells assessed as cell growth at 10^-6 M after 24 hrs by SRB assay; format: functional; settings: read-out: Activity
SK-MEL-5 [13] = assay: Cytotoxicity against human SK-MEL-5 cells assessed as cell growth at 10^-6 M after 24 hrs by SRB assay; format: functional; settings: SK-MEL-5, 24 h, read-out: Activity
786-0 = assay: Cytotoxicity against human 786-0 cells assessed as cell growth at 10^-6 M after 24 hrs by SRB assay; format: functional; settings: 786-0, 24 h, read-out: Activity
[14] = Cytotoxicity against human DU145 cells assessed as cell growth at 10^-6 M after 24 hrs by SRB assay; format: functional; settings: DU-145, 24 h, read-out: Activity
SK-MEL-5 [15] = assay: Cytotoxicity against human SK-MEL-5 cells after 24 hrs by SRB assay; format: functional, cell-based; settings: SK-MEL-5, 24 h
[16] = Cytotoxicity against human OVCAR5 cells after 24 hrs by SRB assay; format: functional; settings: OVCAR-5, 24 h
A498 = assay: Cytotoxicity against human A498 cells after 24 hrs by SRB assay; format: functional; settings: A498, 24 h
[17] = Cytotoxicity against human TK10 cells after 24 hrs by SRB assay; format: functional; settings: TK-10, 24 h
MDA-MB-231 = assay: Cytotoxicity against human MDA-MB-231 cells after 24 hrs by SRB assay; format: functional, cell-based; settings: MDA-MB-231, 24 h
NCI-H226 = assay: Cytotoxicity against human NCI-H226 cells assessed as cell growth at 10^-8 M after 24 hrs by SRB assay; format: functional; settings: NCI-H226, 24 h, read-out: Activity
[18] = Cytotoxicity against human SW620 cells assessed as cell growth at 10^-8 M after 24 hrs by SRB assay; format: functional; settings: SW-620, 24 h, read-out: Activity
[19] = Cytotoxicity against human UACC257 cells assessed as cell growth at 10^-8 M after 24 hrs by SRB assay; format: functional; settings: UACC-257, 24 h, read-out: Activity
KM12 = assay: Cytotoxicity against human KM12 cells assessed as cell growth at 10^-5 M after 24 hrs by SRB assay; format: functional; settings: KM12, 24 h, read-out: Activity
[20] = Cytotoxicity against human SF295 cells assessed as cell growth at 10^-5 M after 24 hrs by SRB assay; format: functional; settings: SF-295, 24 h, read-out: Activity
[21] = Cytotoxicity against human SF539 cells assessed as cell growth at 10^-5 M after 24 hrs by SRB assay; format: functional; settings: SF-539, 24 h, read-out: Activity
U-251 = assay: Cytotoxicity against human U251 cells assessed as cell growth at 10^-5 M after 24 hrs by SRB assay; format: functional; settings: U-251, 24 h, read-out: Activity
[22] = Cytotoxicity against human NCI-ADR-RES cells assessed as cell growth at 10^-5 M after 24 hrs by SRB assay; format: functional; settings: read-out: Activity
MCF7 = assay: Cytotoxicity against human MCF7 cells assessed as cell growth at 10^-5 M after 24 hrs by SRB assay; format: functional; settings: MCF7, 24 h, read-out: Activity
CCRF-CEM = assay: Cytotoxicity against human CCRF-CEM cells assessed as cell growth at 10^-4 M after 24 hrs by SRB assay; format: functional; settings: read-out: Activity
[23] = read-out: LC50 (the source's name)
[24] = read-out: pLC50 (the source's name) (converted)

What does the source list for O=C(Nc1cc(-c2cccnc2)nc(NCCCN2CCOCC2)n1)c1cc(Br)cc(C(F)(F)F)c1?
growth at 0.01 µM [1]: 95%; growth at 0.1 µM (NCI-H522): 92%; growth at 0.1 µM [2]: 107%; growth at 0.1 µM [3]: 92%; growth at 0.1 µM [4]: 98%; IC50 [5]: 1.97 µM; GI50 ([5]; read-out: GI50): 1.97 µM; CC50 [5, 23]: 29.9 µM; TGI ([5]; read-out: TGI): 7.62 µM; GI50 ([5]; read-out: pGI50 (converted)): 1.95 µM; CC50 [5, 24]: 30.2 µM; TGI ([5]; read-out: pTGI (converted)): 7.59 µM; growth at 100 µM [6]: -97%; IC50 (MDA-MB-435 [7]): 1.66 µM; GI50 (MDA-MB-435 [7]; read-out: GI50): 1.66 µM; CC50 (MDA-MB-435 [7]; [23]): 5.98 µM; TGI (MDA-MB-435 [7]; read-out: TGI): 3.15 µM; GI50 (MDA-MB-435 [7]; read-out: pGI50 (converted)): 1.66 µM; CC50 (MDA-MB-435 [7]; [24]): 6.03 µM; TGI (MDA-MB-435 [7]; read-out: pTGI (converted)): 3.16 µM; growth at 1 µM [8]: 101%; growth at 100 µM (MDA-MB-435 [9]): -100%; growth at 100 µM [10]: -79%; growth at 100 µM [11]: -99%; growth at 100 µM [12]: -35%; growth at 1 µM (NCI-H322M): 91%; growth at 1 µM (SK-MEL-5 [13]): 91%; growth at 1 µM (786-0): 81%; growth at 1 µM [14]: 101%; IC50 (SK-MEL-5 [15]): 1.62 µM; GI50 (SK-MEL-5 [15]; read-out: GI50): 1.64 µM; CC50 (SK-MEL-5 [15]; [23]): 5.56 µM; TGI (SK-MEL-5 [15]; read-out: TGI): 3.02 µM; GI50 (SK-MEL-5 [15]; read-out: pGI50 (converted)): 1.66 µM; CC50 (SK-MEL-5 [15]; [24]): 5.62 µM; TGI (SK-MEL-5 [15]; read-out: pTGI (converted)): 3.02 µM; GI50 ([16]; read-out: GI50): 6.33 µM; CC50 [16, 23]: 69.1 µM; TGI ([16]; read-out: TGI): 23.5 µM; GI50 ([16]; read-out: pGI50 (converted)): 6.31 µM; CC50 [16, 24]: 69.2 µM; TGI ([16]; read-out: pTGI (converted)): 23.4 µM; GI50 (A498; read-out: GI50): 3.43 µM; CC50 (A498; [23]): 40.5 µM; TGI (A498; read-out: TGI): 13.4 µM; GI50 (A498; read-out: pGI50 (converted)): 3.39 µM; CC50 (A498; [24]): 40.7 µM; TGI (A498; read-out: pTGI (converted)): 13.5 µM; GI50 ([17]; read-out: GI50): 5.07 µM; CC50 [17, 23]: 43.3 µM; TGI ([17]; read-out: TGI): 18.1 µM; GI50 ([17]; read-out: pGI50 (converted)): 5.13 µM; CC50 [17, 24]: 43.7 µM; TGI ([17]; read-out: pTGI (converted)): 18.2 µM; IC50 (MDA-MB-231): 1.79 µM; GI50 (MDA-MB-231; read-out: GI50): 1.79 µM; CC50 (MDA-MB-231; [23]): 8.65 µM; TGI (MDA-MB-231; read-out: TGI): 3.93 µM; GI50 (MDA-MB-231; read-out: pGI50 (converted)): 1.78 µM; CC50 (MDA-MB-231; [24]): 8.71 µM; TGI (MDA-MB-231; read-out: pTGI (converted)): 3.89 µM; growth at 0.01 µM (NCI-H226): 92%; growth at 0.01 µM [18]: 98%; growth at 0.01 µM [19]: 92%; growth at 10 µM (KM12): 14%; growth at 10 µM [20]: -66%; growth at 10 µM [21]: -73%; growth at 10 µM (U-251): -57%; growth at 10 µM [22]: -4%; growth at 10 µM (MCF7): -3%; growth at 100 µM (CCRF-CEM): -52%
